Square brackets hold non-standard residues; d marks the D form. Peptide text beside a SMILES is read from it. * marks the point of attachment. Dolaproine = CO[C@@H]([C@@H]1CCCN1)[C@@H](C)C(=O)O; Dil = CC[C@H](C)[C@H](NC)[C@@H](CC(=O)O)OC; X1 = C[C@@H](N*)[C@@H](O)c1ccccc1; NMeV = CN[C@H](C(=O)O)C(C)C

The values below come from patent publication US7964567B2, “Monomethylvaline compounds capable of conjugation to ligands” (Seattle Genetics, Inc., priority 2003, dated 2011).

A short description of series [1]: Plasma clearance pharmacokinetics in rats. In kind it is in vivo, Sprague-Dawley rats. Particulars: rat, free drug. The protocol: Pharmacokinetic plasma clearance and stability of ADC were investigated in rats and cynomolgus monkeys. Plasma concentration was measured over time. […] Rats are a non-specific model for ErbB receptor antibodies, since the rat is not known to express HER2 receptor proteins.
AUC inf is the area under the plasma concentration-time curve from time of dosing to infinity and is a measure of the total exposure to the measured entity (drug, ADC). CL is defined as the volume of plasma cleared of the measured entity in unit time and is expressed by normalizing to body weight. T1/2 term is the half-life of the drug in the body measured during its elimination phase.
Animals were dosed by bolus tail vein injection (IV Push). […] Total antibody was measured by ELISA—ECD/GxhuFc-HRP. Antibody drug conjugate was measured by ELISA—MMAE/MMAF/ECD-Bio/SA-HRP.

A further series has as its system SK-BR-3 cells. The experiment in a line: In vitro cell proliferation assay (CellTiter-Glo), SK-BR-3 cells. Particulars: ADC incubated 3-5 days. It is filed as cell-based, human. In general terms: In ATP-based viability assays light output follows the ATP content of the culture.
Series [2] has as its system CD30+ cell line Karpas 299. The experiment in a line: Cytotoxicity determination (resazurin, General Procedure I), Karpas 299. It is filed as cell-based, human. The note with it: Karpas 299, 96 hours; for IC50: resazurin. The protocol:
General Procedure I—Cytotoxicity determination. To evaluate the cytotoxicity of Exemplary Conjugates 7-10, cells were seeded at approximately 5-10,000 per well in 150 μl of culture medium then treated with graded doses of Exemplary Conjugates 7-10 in quadruplicates at the initiation of assay. Cytotoxicity assays were carried out for 96 hours after addition of test compounds. Fifty μl of the resazurin dye was added to each well during the last 4 to 6 hours of the incubation to assess viable cells at the end of culture. Dye reduction was determined by fluorescence spectrometry using the excitation and emission wavelengths of 535 nm and 590 nm, respectively. For analysis, the extent of resazurin reduction by the treated cells was compared to that of the untreated control cells.
(The colour change of resazurin is a common sign of viable cells or microbes.)

Description for SK-BR-3 cells: Cell-based in vitro assays were used to measure viability (proliferation), cytotoxicity, and induction of apoptosis (caspase activation) of the ADC of the invention.
The homogeneous assay procedure involves adding the single reagent (CellTiter-Glo® Reagent) directly to cells cultured in serum-supplemented medium. Cell washing, removal of medium and multiple pipetting steps are not required. The system detects as few as 15 cells/well in a 384-well format in 10 minutes after adding reagent and mixing. The cells may be treated continuously with ADC, or they may be treated and separated from ADC.
The homogeneous “add-mix-measure” format results in cell lysis and generation of a luminescent signal proportional to the amount of ATP present. The amount of ATP is directly proportional to the number of cells present in culture. […] Viable cells are reflected in relative luminescence units (RLU). […] Data can be recorded by luminometer or CCD camera imaging device. The luminescence output is presented as relative light units (RLU), measured over time.
Control wells were prepared containing medium and without cells. • 3. […] The plate was incubated at room temperature for 10 minutes to stabilize the luminescence signal. • 8. Luminescence was recorded and reported in graphs as RLU=relative luminescence units.

A word on the Cmax: it is the highest concentration seen after dosing. For the molecule `CC[C@H](C)[C@@H]([C@@H](CC(=O)N1CCC[C@H]1[C@H](OC)[C@@H](C)C(=O)N[C@@H](Cc1ccccc1)C(=O)O)OC)N(C)C(=O)[C@@H](NC(=O)[C@@H](NC)C(C)C)C(C)C` [Compound 2, N-methylvaline-valine-dolaisoleuine-dolaproine-phenylalanine] (H-[NMeV]V[Dil][Dolaproine]F-OH), the Cmax in series [1] (Sprague-Dawley, plasma, intravenous, 200 ug/kg) amounted to 280 ng/mL. In series [1] (Sprague-Dawley, plasma, intravenous, 200 ug/kg, 200 μg/kg, read-out: T½ Term. (converted)), the half-life is 5.38 h. Besides, in series [1] (200 μg/kg), the AUCinf was found to be 0.99 µg·days/mL and the CL turned out to be 8.5 mL/h/kg.

Turning to `CC[C@H](C)[C@@H]([C@@H](CC(=O)N1CCC[C@H]1[C@H](OC)[C@@H](C)C(=O)N[C@H](C)[C@@H](O)c1ccccc1)OC)N(C)C(=O)[C@@H](NC(=O)[C@@H](NC)C(C)C)C(C)C` [MMAE, mono-methyl auristatin E, reference compound] (H-[NMeV]V[Dil][Dolaproine]-X1), in series [1] (206 μg/kg), the AUCinf came to 3.71 µg·days/mL, the CL was 2.61 mL/h/kg and the “T½ Term.” value stood at 17.8 h.

Consider “H-MC-vc-PAB-MMAE: trastuzumab conjugated via a cysteine to MC-val-cit-PAB-MMAE; preparations of different loading”, for which, in the series on SK-BR-3 cells, the “IC50 (μg ADC/ml)” value was 0.015 μg ADC/ml.

The IC50 is the concentration needed to halve the response being measured. Turning to cAC10-9: cAC10 Conjugate of Compound 9, in series [2], the “activity compared with cAC10-val-cit-MMAE” value is listed as “slightly more active” and the “IC50” value stood at 0.5 ng/mL.

As for “cAC10-val-cit-MMAE: cAC10 (anti-CD30) val-cit MMAE conjugate used as comparator [reference compound]”, the “IC50” value in series [2] amounted to 6 ng/mL.
